The source of these data is US20230167058A1, “GPX4 COMPOUNDS AND COMPOSITIONS AND METHODS OF TREATMENT USING SAME” (THE TRUSTEES OF COLUMBIA UNIVERSITY IN THE CITY OF NEW YORK, priority 2020, published 2023).

Series [1] deals with HT1080 cells. The series can be described thus: Single-point ferroptosis test, cellular viability (CellTiter-Glo). The series is classed as cell-based, human. The note with it: 125 μM LOC1886, 48 h. How it is done: 1000 cells of each HT-1080 or G401 cell line were plated 36 μL per well of a 384-well plate on day 1. The remaining cells were immediately tested for Western Blot (to monitor GPX4 protein overexpression level). For dose response curves, compounds were dissolved in DMSO and a 12-point, twofold dilution series was prepared. The compounds were then diluted 1:50 in media and 4 μL was added to each well of the plates on day 2. Final concentrations of the compounds on the 384-well plate started from 2 μM for RSL3/ML162 and 20 μM for IKE/FIN56/FINO2. For single-point ferroptosis test, HT1080 cells were treated either with 12.5 μM RSL3 or 125 μM LOC1886, with or without supplementation of 2 μM Fer-1. After 48 h of treatment, the viability of cells was measured using 1:1 dilution of the CellTiter-Glo luminescent reagent (Promega G7573) with media, which was read on a Victor 5 plate reader after 10 min of shaking at room temperature on day 4. The intensity of luminescence was normalized to that of DMSO control. Results were quantified using GraphPad Prism 9. Based on the dose-response curve of viability, area under curves were calculated and reported in bar graph formats with standard errors using GraphPad Prism 9.
(In general: Cellular ATP, detected with luciferase, serves as a proxy for viable cell number.)

In series [2] the target is T1, GPX4 (Homo sapiens, UniProt P36969).
T1 sequence (P36969 1-170 isoform P36969-2): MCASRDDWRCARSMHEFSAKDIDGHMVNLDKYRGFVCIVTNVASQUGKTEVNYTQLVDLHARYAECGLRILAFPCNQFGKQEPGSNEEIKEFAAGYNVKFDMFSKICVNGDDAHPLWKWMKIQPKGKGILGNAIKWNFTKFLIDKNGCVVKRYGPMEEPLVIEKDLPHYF
The series can be described thus: GPX4-specific enzymatic activity assay (LC-MS substrate/product, NADPH-coupled). It counts as biochemical. The text has this:
These x-ray structures enabled further optimization of current inhibitors and the design of novel inhibitors targeting various binding sites on GPX4. Therefore, we applied a strategy of computer-facilitated design, based on MD simulation (Desmond) and Glide docking (Schrödinger Suite), and experimental high-throughput screening of a lead-optimized compound library of 10,000 compounds (FIGS. 6A-6E). All candidates were first evaluated by thermal denaturation assay and microscale thermophoresis (MST) to validate binding to GPX4 (Table 1). Surface plasmon resonance (SPR) and isothermal titration calorimetry (ITC) were then applied to precisely measure their binding kinetics and affinities, while ^1H-^15N heteronuclear single-quantum coherence (HSQC) NMR spectroscopy informed us of binding sites. We optimized two GPX4-specific activity assays to examine enzymatic inhibitory effects of hit compounds—LC-MS-based substrate/product monitoring and an NADPH-coupled assay. […] Some L880 analogues were also synthesized and tested (Table 2).

Series [3] concerns cancer cells. The note with it: cited from earlier work.
Series [4] in a line: Aqueous solubility. It counts as physicochemical.
Series [5] deals with allCys(−) A66C GPX4 in G401 cells. The series can be described thus: Western blot GPX4 degradation study in G401. It counts as cell-based. The note with it: 2 or 4 μM RSL3, 10 h, 10 μM Fer-1. As to the method:
For the GPX4 degradation study, G-401 cells were seeded at 800,000 per well in a 60-mm plate and allowed to adhere overnight. Cells were then treated with 10 μM Fer-1 and 0 (vehicle), 2 or 4 μM RSL3 for 10 h. Cells were harvested with trypsin (Invitrogen, 25200-114), pelleted, and lysed with RIPA buffer.
For the quantification of GPX4 protein level for cellular viability and GPX4-specific activity assay, each cell line subject to the cellular viability and GPX4-specific activity was tested by Western Blot in technical duplicates. In particular, cells were harvested with trypsin (Invitrogen, 25200-114), pelleted, and lysed by LCW lysis buffer (0.5% TritonX-100, 0.5% sodium deoxycholate salt, 150 mM NaCl, 20 mM Tris-HCl pH 7.5, 10 mM EDTA, 30 mM Na-pyrophosphate, and cOmplete protease inhibitor cocktail). While part of the cell lysates was blotted for protein quantification, the other part of lysates was used for the GPX4-specific activity assay. For both experiments, cell lysates were blotted and imaged as previously described (Yang et al. 2014). Antibodies used were GPX4 (Abcam, ab125066, 1:250 dilution) and actin (Cell Signaling, D18C11, 1:3,000 dilution). Results were quantified using a LI-COR Odyssey CLx IR scanner, ImageJ, and GraphPad Prism 9.
A general note: In western blotting, separated proteins are transferred to a membrane and probed.

Entries after “also recorded” stand apart in the source; their conditions may differ.

With `COc1cccc2[nH]c(C(=O)n3ccnc3)cc12` [LOC1886], in series [1], the induction of ferroptosis entry is listed as “able to induce ferroptosis to HT1080 cells”. In series [2], the GPX4 enzymatic assay entry is listed as “suppression of its enzymatic activity; also recorded: positive”.
In the case of `COC(=O)c1ccc([C@@H]2c3[nH]c4ccccc4c3C[C@@H](C(=O)OC)N2C(=O)CCl)cc1` [RSL3, (1S, 3R)-RSL3], in series [3], the “potency to induce ferroptosis” value is given as “nanomolar potencies”. Also, the “solubility in aqueous solution” value in series [4] is “low”. The “RSL3-induced degradation of allCys(−) A66C GPX4” value in series [5] is reported as “does-dependent degradation of allCys(−) A66C GPX4”.
